Source: patent US20120029167A1, “AUTO MAGNETIC METAL SALEN COMPLEX COMPOUND” (Yoshihiro Ishikawa, priority 2008, published 2012)

Key:
[1] = 37° C. (310K) magnetic field-magnetization curve using MPMS7 (Quantum Design); assay type: physicochemical; conditions: for magnetic field at which magnetization is greater in comparison to the Fe-salen / magnetic properties from magnetic field-magnetization curve: 37° C. (310K); for magnetization compared among Fe-, Mn-, Cr-, Co-salen: magnetic field 10000 Oe (1 T) or more
Method: As a result of measuring the 37° C.
The summary of the results of the 37° C. (310K) magnetic field-magnetization curve of the Fe-salen complex, the Mn-salen complex, the Cr-salen complex, and the Co-salen complex is shown in FIG. 4.
In comparison to the Fe-salen, the Co-salen yields greater magnetization at a magnetic field of 10000 Oe (1 T (tesla)) or more. In comparison to the Fe-salen, the Mn-salen yields greater magnetization at a magnetic field of 30000 Oe (3 T (tesla)) or more.
Nevertheless, if the magnetic field is 10000 Oe (1 T (tesla)) or more, the magnetization of the Co-salen and Mn-salen complex is the greatest and is optimal for a magnetic field drug delivery system which uses a superconducting magnet.

[2] = test system: rat L6 cells; assay: Rat L6 cell culture in square flask with magnet, number of cells after 48 hours; assay type: cell-based; conditions: powder sprinkled on culture medium, L6 cells confluent at 30%, bar magnet
Method: The respective metal salen complex powders of the Fe-salen complex, the Mn-salen complex, the Cr-salen complex, and the Co-salen complex obtained with the foregoing method were sprinkled on a culture medium in an amount that where such powder can be visually confirmed to be drawn to the magnet in a state where the rat L6 cells are confluent at 30%, and a photograph of the state of the culture medium after 48 hours was taken.
Subsequently, a photograph was taken from one end to the other end of the bottom face of the square flask after 48 hours, and the results of calculating the number of cells are shown in FIG. 6. […]
Shown is a state where the bar magnet was caused to come in contact with a square flask as the culture medium of the rat L6 cells. Subsequently, a photograph was taken from one end to the other end of the bottom face of the square flask after 48 hours, and the number of cells was calculated. […]
Shown is a state where the bar magnet was caused to come in contact with a square flask as the culture medium of the rat L6 cells. Subsequently, a photograph was taken from one end to the other end of the bottom face of the square flask after 48 hours, and the number of cells was calculated.

| magnetic field at which magnetization is greater in comparison to the Fe-salen [1] | magnetic properties from magnetic field-magnetization curve [1] | magnetization compared among Fe-, Mn-, Cr-, Co-salen [1] | Structure (SMILES) | number of cells proximal from the magnet versus distal [2] |
| --- | --- | --- | --- | --- |
| ≥ 10000 Oe | paramagnetic properties were observed | the greatest | [Co+2].[O-]c1ccccc1C=NCCN=Cc1ccccc1[O-] [Co-salen complex] | – |
| – | paramagnetic properties were observed | – | [Cr+2].[O-]c1ccccc1C=NCCN=Cc1ccccc1[O-] [Cr-salen complex] | – |
| ≥ 30000 Oe | paramagnetic properties were observed | the greatest | Oc1ccccc1C=NCCN=Cc1ccccc1O.[Mn] [Mn-salen complex] | number of cells is extremely lower than the distal |
